Laboratory results as given in the supplement of paper PMC10307832.

Assays:
Test in all cases: relative viability (nuclei count vs DMSO), 5 days (fraction); higher = more cells survive
[1] = compound: CC(C)N(CCCNC(=O)Nc1ccc(C(C)(C)C)cc1)C[C@H]1O[C@@H](n2ccc3c(N)ncnc32)[C@H](O)[C@@H]1O + CC1(C)CCC(c2ccc(Cl)cc2)=C(CN2CCN(c3ccc(C(=O)NS(=O)(=O)c4ccc(N[C@H](CCN5CCOCC5)CSc5ccccc5)c(S(=O)(=O)C(F)(F)F)c4)cc3)CC2)C1 [Navitoclax] (partner 0.5 µM)
Summary of the method: (§1)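 Medians of duplicate plates are given as relative viability. That measure is the nuclei count in treated wells divided by the count in vehicle wells. Counts were taken on 4× images of lung cancer cell lines in 1536-well plates, 5 days after pin-tool dosing the day after seeding with one drug alone or a fixed anchor-drug dose plus five library-drug doses (not always all listed) in √10 steps.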

Shikonin + OSI-027 = compound: CC(C)=CC[C@@H](O)C1=CC(=O)c2c(O)ccc(O)c2C1=O [Shikonin] + COc1cccc2cc(-c3nc([C@H]4CC[C@H](C(=O)O)CC4)n4ncnc(N)c34)[nH]c12 [OSI-027] (partner 0.5 µM)
Summary of the method: as §1

[2] = compound: CC(C)N(CCCNC(=O)Nc1ccc(C(C)(C)C)cc1)C[C@H]1O[C@@H](n2ccc3c(N)ncnc32)[C@H](O)[C@@H]1O + COc1cccc2cc(-c3nc([C@H]4CC[C@H](C(=O)O)CC4)n4ncnc(N)c34)[nH]c12 [OSI-027] (partner 0.5 µM)
Summary of the method: as §1

[3] = compound: CC(C)N(CCCNC(=O)Nc1ccc(C(C)(C)C)cc1)C[C@H]1O[C@@H](n2ccc3c(N)ncnc32)[C@H](O)[C@@H]1O + CS(=O)(=O)N1CCN(Cc2cc3nc(-c4cccc5[nH]ncc45)nc(N4CCOCC4)c3s2)CC1 [Pictilisib] (partner 1 µM)
Summary of the method: as §1

UMC-11
relative viability ([1]; first compound 0.08 µM): 0.296
relative viability ([1]; first compound 0.253 µM): 0.329
relative viability ([1]; first compound 0.8 µM): 0.319
relative viability ([1]; first compound 2.53 µM): 0.302
relative viability ([1]; first compound 8 µM): 0.294
relative viability (Shikonin + OSI-027; first compound 0.01 µM): 0.469
relative viability (Shikonin + OSI-027; first compound 0.1 µM): 0.532
relative viability (Shikonin + OSI-027; first compound 0.3162 µM): 0.492
relative viability (Shikonin + OSI-027; first compound 1 µM): 0.526
relative viability ([2]; first compound 0.08 µM): 0.458
relative viability ([2]; first compound 0.253 µM): 0.465
relative viability ([2]; first compound 0.8 µM): 0.453
relative viability ([2]; first compound 2.53 µM): 0.522
relative viability ([2]; first compound 8 µM): 0.532
relative viability ([3]; first compound 0.08 µM): 0.683
relative viability ([3]; first compound 0.253 µM): 0.662
relative viability ([3]; first compound 0.8 µM): 0.783
relative viability ([3]; first compound 2.53 µM): 0.805
relative viability ([3]; first compound 8 µM): 0.745
